{"source": "paper PMC11233931", "about": "“Remodeling tumor‐associated macrophage for anti‐cancer effects by rational design of irreversible inhibition of mitogen‐activated protein kinase‐activated protein kinase 2” (MedComm, 2024)", "target": "T1, TTK (Homo sapiens, UniProt P33981)", "T1 construct": "purchased Eurofins (Celle Lévescault)", "T1 sequence (P33981 1-857)": "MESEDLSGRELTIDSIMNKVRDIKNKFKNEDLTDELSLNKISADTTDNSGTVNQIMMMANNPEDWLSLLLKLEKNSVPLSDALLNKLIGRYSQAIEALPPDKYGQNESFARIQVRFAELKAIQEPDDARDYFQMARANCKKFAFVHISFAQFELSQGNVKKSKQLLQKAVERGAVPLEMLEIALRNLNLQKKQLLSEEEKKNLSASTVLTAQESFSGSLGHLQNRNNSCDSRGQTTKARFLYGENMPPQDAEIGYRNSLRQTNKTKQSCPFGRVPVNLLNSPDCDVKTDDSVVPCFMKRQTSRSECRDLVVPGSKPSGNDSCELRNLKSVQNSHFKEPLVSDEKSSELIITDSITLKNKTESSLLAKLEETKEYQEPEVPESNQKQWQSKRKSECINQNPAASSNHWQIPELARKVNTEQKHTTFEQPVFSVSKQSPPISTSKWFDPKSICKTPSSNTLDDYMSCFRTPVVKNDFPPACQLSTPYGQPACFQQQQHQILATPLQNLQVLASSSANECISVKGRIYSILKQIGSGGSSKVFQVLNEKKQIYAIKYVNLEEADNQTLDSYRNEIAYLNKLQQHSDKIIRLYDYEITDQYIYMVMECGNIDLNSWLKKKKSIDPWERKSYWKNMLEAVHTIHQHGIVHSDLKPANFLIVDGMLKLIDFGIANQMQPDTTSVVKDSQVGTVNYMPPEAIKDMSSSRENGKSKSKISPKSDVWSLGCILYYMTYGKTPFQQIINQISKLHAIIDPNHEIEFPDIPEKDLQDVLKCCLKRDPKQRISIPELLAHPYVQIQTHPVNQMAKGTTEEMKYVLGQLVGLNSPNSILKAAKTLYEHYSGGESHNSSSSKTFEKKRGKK", "assay": "Eurofins kinase selectivity profile, TTK", "format": "biochemical", "description": "Subsequently, to ascertain whether the high potency of compound 11 was specific for MK2, an additional 380 human recombinant protein kinases were screened.\nTo assess the impact of various compounds on MK2 kinase activity, we utilized the ADP‐Glo Assay Kit (Promega) following the manufacturer's instructions. Luminescence measurements were taken using a SpectraMax Paradigm reader. The inhibition percentage was calculated using the following formula: ((specific signalDMSO control − specific signal inhibitor)/(specific signalDMSO control)) × 100%. The IC50 values were determined employing dose–response curve fitting via Prism (Graph Pad). Additionally, Eurofins company (Celle Lévescault) conducted the analysis on compound 11’s inhibitory activity against 380 other human recombinant kinases at various concentrations."}
{"compound": "C=CC(=O)Nc1cc(-c2cc(-c3cc4c([nH]3)CCNC4=O)ccn2)ccc1OC(F)(F)F", "note": "[compound 11]", "values": [{"measurement": "IC50", "result": "> 1000", "unit": "nM"}, {"measurement": "inhibition at 0.01 µM", "setting": "TTK(h), 10 nM, read-out: Inhibition rate", "result": -1, "unit": "%"}, {"measurement": "inhibition at 0.1 µM", "setting": "TTK(h), 100 nM, read-out: Inhibition rate", "result": 7, "unit": "%"}, {"measurement": "inhibition at 1 µM", "setting": "TTK(h), 1000 nM, read-out: Inhibition rate", "result": 43, "unit": "%"}]}
